Reference: US20110312934A1, “2-ALKYL-6-CYCLOAMINO-3-(PYRIDIN-4-YL)IMIDAZO[1,2-B]-PYRIDAZINE DERIVATIVES, PREPARATION THEREOF, AND THERAPEUTIC APPLICATION THEREOF” (SANOFI-AVENTIS, priority 2008, published 2011)
Structures can show the parent of a compound that is named as a salt.

| Compound | melting point |
| --- | --- |
| CN1CCN(c2ccc3nc(C(F)(F)F)c(-c4ccncc4)n3n2)CC1 [Compound 40, 6-(4-Methylpiperazin-1-yl)-3-pyridin-4-yl-2-trifluoromethylimidazo[1,2-b]pyridazine] | 182 to 184 °C |
| Cc1nc2ccc(N3CC4CN(C(C)C)CC4C3)nn2c1-c1ccnc(N)c1 (stereo not shown) [Compound 73, 4-[6-(−5-Isopropylhexahydropyrrolo[3,4-c]pyrrol-2(1H)-yl)-2-methylimidazo[1,2-b]pyridazin-3-yl]pyridin-2-ylamine] | 215 to 218 °C |
| Cc1nc2ccc(N3CCN[C@@H](C)C3)nn2c1-c1ccnc(N)c1 [Compound 38, 4-[2-Methyl-6-((S)-3-methylpiperazin-1-yl)imidazo[1,2-b]pyridazin-3-yl]pyridin-2-ylamine] | 172 to 177 °C |
| CC(C)c1nc2ccc(N3CCNCC3)nn2c1-c1ccncc1 [Compound 9, 2-Isopropyl-6-piperazin-1-yl-3-pyridin-4-ylimidazo[1,2-b]pyridazine] | 199 to 201 °C |
| Cc1nc2ccc(N3CCN[C@@H](C)C3)nn2c1-c1ccncc1 [Compound 35, 2-Methyl-6-((S)-3-methylpiperazin-1-yl)-3-pyridin-4-ylimidazo[1,2-b]pyridazine] | 146 to 148 °C |
| Cc1nc2ccc(N3CC4CN(C(C)C)CC4C3)nn2c1-c1ccncc1 (stereo not shown) [Compound 72, 6-(−5-Isopropylhexahydropyrrolo[3,4-c]pyrrol-2(1H)-yl)-2-methyl-3-pyridin-4-ylimidazo[1,2-b]-pyridazine] | 172 to 175 °C |
| Cc1nc2ccc(N3CCN[C@H](C)C3)nn2c1-c1ccncc1 [Compound 26, 2-Methyl-6-((R)-3-methylpiperazin-1-yl)-3-pyridin-4-ylimidazo[1,2-b]pyridazine] | 146 to 148 °C |
| Cc1nc2ccc(N3C[C@@H](C)N[C@@H](C)C3)nn2c1-c1ccnc(N)c1 [Compound 56, 4-[6-(cis-3,5-Dimethylpiperazin-1-yl)-2-methylimidazo[1,2-b]pyridazin-3-yl]pyridin-2-ylamine] | 213 to 215 °C |
| COc1cc(-c2c(C)nc3ccc(N4CC5CNCC5C4)nn23)ccn1 (stereo not shown) [Compound 74, 6-Hexahydropyrrolo[3,4-c]pyrrol-2(1H)-yl-3-(2-methoxypyridin-4-yl)-2-methylimidazo[1,2-b]-pyridazine] | 95 °C |
| CCN1CCN(c2ccc3nc(C)c(-c4ccncc4)n3n2)CC1 (as salt: HCl) [Compound 42, 6-(4-Ethylpiperazin-1-yl)-2-methyl-3-pyridin-4-ylimidazo[1,2-b]pyridazine] | 305 to 307 °C |
| Cc1nc2ccc(N3CCC4(CC3)CNCCO4)nn2c1-c1ccnc(N)c1 (as salt: HCl) | > 300 °C |
| Cc1cc(-c2c(C)nc3ccc(N4CCN[C@H](C)C4)nn23)ccn1 [Compound 27, 2-Methyl-6-((R)-3-methylpiperazin-1-yl)-3-(2-methylpyridin-4-yl)imidazo[1,2-b]pyridazine] | 157 to 159 °C |
| Cc1nc2ccc(N3CCC(N4CCCC4)CC3)nn2c1-c1ccnc(N)c1 [Compound 84, 4-[2-Methyl-6-(4-pyrrolidin-1-ylpiperidin-1-yl)imidazo[1,2-b]pyridazin-3-yl]pyridin-2-ylamine] | 129 to 138 °C |
| Cc1cc(-c2c(C)nc3ccc(N4CCC5(CCCNC5)CC4)nn23)ccn1 (as salt: HCl) | > 295 °C |
| Cc1cc(-c2c(C)nc3ccc(N4CCN(C(C)C)CC4)nn23)ccn1 [Compound 45, 6-(4-Isopropylpiperazin-1-yl)-2-methyl-3-(2-methylpyridin-4-yl)imidazo[1,2-b]pyridazine] | 97 to 99 °C |
| Cc1nc2ccc(N3CCNCC3)nn2c1-c1ccnc(F)c1 [Compound 3, 3-(2-Fluoropyridin-4-yl)-2-methyl-6-piperazin-1-ylimidazo[1,2-b]pyridazine] | 139 to 141 °C |
| Cc1cc(-c2c(C)nc3ccc(N4CCC5(CC4)CNC5)nn23)ccn1 [Compound 76, 6-(2,7-Diazaspiro[3.5]non-7-yl)-2-methyl-3-(2-methylpyridin-4-yl)imidazo[1,2-b]pyridazine] | 117 to 120 °C |
| CNc1cc(-c2c(C)nc3ccc(N4C[C@@H](C)N[C@@H](C)C4)nn23)ccn1 [Compound 57, {4-[6-(cis-3,5-Dimethylpiperazin-1-yl)-2-methylimidazo[1,2-b]pyridazin-3-yl]pyridin-2-yl}-methylamine] | 111 to 126 °C |
| Cc1cc(-c2c(C)nc3ccc(N4CCC(N5CCCC5)CC4)nn23)ccn1 [Compound 83, 2-Methyl-3-(2-methylpyridin-4-yl)-6-(4-pyrrolidin-1-ylpiperidin-1-yl)imidazo[1,2-b]pyridazine] | 124 to 126 °C |
| Cc1nc2ccc(N3CC4CNCC4C3)nn2c1-c1ccnc(N)c1 (stereo not shown) [Compound 68, {4-[6-(Hexahydropyrrolo[3,4-c]pyrrol-2(1H)-yl)-2-methylimidazo[1,2-b]pyridazin-3-yl]pyridin-2-yl}amine] | > 155 °C (dec.) |

| Compound | melting point |
| --- | --- |
| Cc1nc2ccc(N3CCN(C)CC3)nn2c1-c1ccncc1 [Compound 39, 2-Methyl-6-(4-methylpiperazin-1-yl)-3-pyridin-4-ylimidazo[1,2-b]pyridazine] | 150 to 152 °C |
| Cc1nc2ccc(N3CCN(C4CCC4)CC3)nn2c1-c1ccnc(N)c1 [Compound 48, 4-[6-(4-Cyclobutylpiperazin-1-yl)-2-methylimidazo[1,2-b]pyridazin-3-yl]pyridin-2-ylamine] | 132 to 144 °C |
| Cc1nc2ccc(N3C[C@@H](C)N[C@@H](C)C3)nn2c1-c1ccncc1 (as salt: HCl) [Compound 54, 6-(cis-3,5-Dimethylpiperazin-1-yl)-2-methyl-3-pyridin-4-ylimidazo[1,2-b]pyridazine] | 343 to 345 °C |
| Cc1cc(-c2c(C)nc3ccc(N4C[C@H]5CCN[C@@H]5C4)nn23)ccn1 [Compound 65, (R,S)-6-(Hexahydropyrrolo[3,4-b]pyrrol-5(1H)-yl)-2-methyl-3-(2-methylpyridin-4-yl)imidazo[1,2-b]pyridazine] | 131 to 133 °C |
| Cc1cc(-c2c(C)nc3ccc(N4CC5CNCC5C4)nn23)ccn1 (stereo not shown) (as salt: HCl) [Compound 67, 6-Hexahydropyrrolo[3,4-c]pyrrol-2(1H)-yl-2-methyl-3-(2-methylpyridin-4-yl)-imidazo[1,2-b]-pyridazine] | 214 to 221 °C |
| CC(C)Cc1nc2ccc(N3CCNCC3)nn2c1-c1ccncc1 [Compound 16, 2-Isobutyl-6-piperazin-1-yl-3-pyridin-4-ylimidazo[1,2-b]pyridazine] | 92 to 119 °C |
| Cc1nc2ccc(N3CCN[C@H](C)C3)nn2c1-c1ccnc(N)c1 [Compound 28, 4-[2-Methyl-6-((R)-3-methylpiperazin-1-yl)imidazo[1,2-b]pyridazin-3-yl]pyridin-2-ylamine] | 172 to 177 °C |
| Cc1nc2ccc(N3CCNC(C)(C)C3)nn2c1-c1ccnc(CN)c1 [Compound 50, {4-[6-(3,3-Dimethylpiperazin-1-yl)-2-methylimidazo[1,2-b]pyridazin-3-yl]pyridin-2-yl}methylamine] | 151 to 156 °C |
| Cc1nc2ccc(N3C[C@H]4CCCN[C@@H]4C3)nn2c1-c1ccncc1 [Compound 75, (R,S)-2-Methyl-6-(octahydropyrrolo[3,4-b]pyridin-6-yl)-3-pyridin-4-ylimidazo[1,2-b]-pyridazine] | 130 to 135 °C |
| Cc1cc(-c2c(C)nc3ccc(N4C[C@@H]5C[C@@H]4CN5)nn23)ccn1 (as salt: HBr) | > 300 °C |
| Cc1nc2ccc(N3CCC4(CC3)CNCCO4)nn2c1-c1ccncc1 (as salt: HCl) | > 255 °C |
| Cc1nc2ccc(N3CCN(C4CCC4)CC3)nn2c1-c1ccncc1 [Compound 47, 6-(4-Cyclobutylpiperazin-1-yl)-2-methyl-3-pyridin-4-ylimidazo[1,2-b]pyridazine] | 122 to 132 °C |
| Cc1cc(-c2c(C)nc3ccc(N4C[C@@H](C)N[C@@H](C)C4)nn23)ccn1 [Compound 55, 6-(cis-3,5-Dimethylpiperazin-1-yl)-2-methyl-3-(2-methylpyridin-4-yl)imidazo[1,2-b]pyridazine] | 127 to 129 °C |
| CCN1CCN(c2ccc3nc(C)c(-c4ccnc(C)c4)n3n2)CC1 [Compound 43, 6-(4-Ethylpiperazin-1-yl)-2-methyl-3-(2-methylpyridin-4-yl)imidazo[1,2-b]pyridazine] | 144 to 146 °C |
| Cc1nc2ccc(N3CCNC(CO)C3)nn2c1-c1ccncc1 (stereo not shown) [Compound 41, [4-(2-Methyl-3-pyridin-4-ylimidazo[1,2-b]pyridazin-6-yl)piperazin-2-yl]methanol] | 237 to 240 °C |
| c1cc(-c2c(C3CC3)nc3ccc(N4CCNCC4)nn23)ccn1 [Compound 11, 2-Cyclopropyl-6-piperazin-1-yl-3-pyridin-4-ylimidazo[1,2-b]pyridazine] | 169 to 171 °C |
| Cc1nc2ccc(N3C[C@@H]4C[C@H]3CN4)nn2c1-c1ccncc1 | 120 °C (dec.) |
| Cc1nc2ccc(N3CCNCC3)nn2c1-c1ccncc1 (as salt: HCl) [Compound 2, 2-Methyl-6-piperazin-1-yl-3-pyridin-4-yl-imidazo[1,2-b]pyridazine] | 319 to 321 °C |
| Cc1nc2ccc(N3CCC(N4CCCC4)CC3)nn2c1-c1ccncc1 [Compound 82, 2-Methyl-3-pyridin-4-yl-6-(4-pyrrolidin-1-ylpiperidin-1-yl)imidazo[1,2-b]pyridazine] | 150 to 153 °C |
| COc1cc(-c2c(C)nc3ccc(N4CCN[C@@H](C)C4)nn23)ccn1 [Compound 36, 3-(2-Methoxypyridin-4-yl)-2-methyl-6-((S)-3-methylpiperazin-1-yl)imidazo[1,2-b]pyridazine] | 106 to 108 °C |
